Read-outs that look alike come from different tables or passages of the source. Square brackets hold non-standard residues; d marks the D form. Peptide text beside a SMILES is read from it. dPhe(4-Cl) = N[C@H](Cc1ccc(Cl)cc1)C(=O)O; d2Nal = N[C@H](Cc1ccc2ccccc2c1)C(=O)O; dCit = NC(=O)NCCC[C@@H](N)C(=O)O; d3Pal = N[C@H](Cc1cccnc1)C(=O)O
Tests used:
PMP flushing [1] = assay: Short-term in-hospital response: flush diary (frequency, duration, severity, sweating); assay type: in vivo, women
Description: (§1) Three women who were referred for treatment of severe PMP flushing were included in the pilot study, after signing an informed consent. All three had frequent and severe flushing, during daytime as well as during the night. Sleep was often disturbed by flushes and sweat attacks, often forcing a change of clothes and/or bed linen. Physical examination in these patients was unremarkable and other causes of flushing were excluded. Thyroid function was normal, 24 hour urinary hydroxy-indol-acetic acid and catecholamines were within the reference range, serum tryptase was normal, and none used any medication known to induce flushing.
(§2) To avoid intermittent and variable interference of external factors as much as possible, and to guarantee a constant ambient temperature all subjects were hospitalized for further study. They remained ambulatory during that period. They were instructed to record the following flush characteristics in a diary: time of onset, duration in minutes, flush severity on a scale of 0-10, and the degree of associated sweat attacks: 0=no sweating; 1=mild sweating, i.e. only moist skin, no visible sweat drops; 2=moderate sweating, i.e. visible sweat drops; 3=severe sweating, i.e. totally wet, change of clothes necessary. Blood samples for measurement of serum LH, FSH, estradiol, SHBG and albumin were taken each day at 08.00 h and 20.00 h.

[2] = system: serum LH, FSH, estradiol, SHBG and albumin; assay: Short-term in-hospital response: serum LH, FSH, estradiol, SHBG and albumin; assay type: in vivo, women
Description: as §2, with “h. LH, FSH and estradiol were measured by electrochemiluminescene immunoassays (Roche Diagnostics, Mannheim, Germany). Normal ranges in PMP women: LH>10 U/L, FSH>30 U/L, estradiol<100 nmol/L. SHBG was measured by chemilumiescent enzyme immunoassay (DPC, Los Angeles, Calif., USA, normal range in PMP women: 18-144 nmol/L)).” for “h.”

PMP flushing [3] = assay: Long-term treatment, outpatient setting: flush recording; assay type: in vivo, women
Description: To avoid intermittent and variable interference of external factors as much as possible, and to guarantee a constant ambient temperature all subjects were hospitalized for further study. They remained ambulatory during that period. They were instructed to record the following flush characteristics in a diary: time of onset, duration in minutes, flush severity on a scale of 0-10, and the degree of associated sweat attacks: 0=no sweating; 1=mild sweating, i.e. only moist skin, no visible sweat drops; 2=moderate sweating, i.e. visible sweat drops; 3=severe sweating, i.e. totally wet, change of clothes necessary. Blood samples for measurement of serum LH, FSH, estradiol, SHBG and albumin were taken each day at 08.00 h and 20.00 h. To evaluate whether responsiveness was maintained in the long run, Cetrorelix treatment was studied for a prolonged period in an outpatient setting. Cetrorelix was started after a baseline observation period of 3-6 days. In the first two patients the starting dose was of 250 μg once a day, injected at about 8.30-9.00 h, just after the morning blood sampling. In the third patient the starting dose was 500 μg once a day. Blood was sampled only in the morning, between 8.00 en 9.00 h, every day during the first 4 days, thereafter every 3 days for a brief period, and later on once a week.

serum LH and FSH = assay: Long-term treatment, outpatient setting: serum LH and FSH; assay type: in vivo, women
Description: LH, FSH and estradiol were measured by electrochemiluminescene immunoassays (Roche Diagnostics, Mannheim, Germany). Normal ranges in PMP women: LH>10 U/L, FSH>30 U/L, estradiol<100 nmol/L. SHBG was measured by chemilumiescent enzyme immunoassay (DPC, Los Angeles, Calif., USA, normal range in PMP women: 18-144 nmol/L)). To evaluate whether responsiveness was maintained in the long run, Cetrorelix treatment was studied for a prolonged period in an outpatient setting. Cetrorelix was started after a baseline observation period of 3-6 days. In the first two patients the starting dose was of 250 μg once a day, injected at about 8.30-9.00 h, just after the morning blood sampling. In the third patient the starting dose was 500 μg once a day. Blood was sampled only in the morning, between 8.00 en 9.00 h, every day during the first 4 days, thereafter every 3 days for a brief period, and later on once a week.

PMP flushing [4] = system: PMP flushing
Description: as §1

PMP flushing [5] = settings: in vivo; cited from earlier work
breast cancer = breast cancer survivors; cited from earlier work
[6] = Patient 1, 250 μg once a day for five days
[7] = Patient 1, 250 μg once a day, within 24 hours
[8] = Patient 2, 250 μg once a day, 4th day of treatment
[9] = Patient 3, 250 μg once a day, after the first 5 days
[10] = Patient 3, 250 μg once a day at 08.30 h
[11] = Patient 1, discontinued after 4 months
[12] = Patient 1, outpatient, 250 μg once a day, after two weeks
[13] = Patient 1, outpatient, 250 μg once a day, if flushes occurred
[14] = Patient 2, outpatient, 250 μg once a day, over the following weeks
[15] = Patient 2, outpatient, 250 μg twice a day after the third month
[16] = Patient 2, outpatient, 250 μg twice a day, eventually
[17] = Patient 1, outpatient, 250 μg once a day
[18] = Patient 3, outpatient, 500 μg once a day at 20.00 h, first 4 weeks

CC(=O)N[C@H](Cc1ccc2ccccc2c1)C(=O)N[C@H](Cc1ccc(Cl)cc1)C(=O)N[C@H](Cc1cccnc1)C(=O)N[C@@H](CO)C(=O)N[C@@H](Cc1ccc(O)cc1)C(=O)N[C@H](CCCNC(N)=O)C(=O)N[C@@H](CC(C)C)C(=O)N[C@@H](CCCNC(=N)N)C(=O)N1CCC[C@H]1C(=O)N[C@H](C)C(N)=O [Cetrorelix] (Ac-[d2Nal][dPhe(4-Cl)][d3Pal]SY[dCit]LRP[dA]-NH2)
Daytime flush duration (PMP flushing [1]; [6]): did not change appreciably | Nighttime flush duration (PMP flushing [1]; [6]): tended to decrease | Flush severity (PMP flushing [1]; Patient 1, 250 μg once a day for five days, in particular during daytime): weak trend to decrease | Decrease in daytime flush frequency (PMP flushing [1]; [7]): 60-70% | Decrease in nighttime flushing (PMP flushing [1]; [7]): 60-70% | Decrease in total flush frequency (PMP flushing [1]; [7]): 60-70% | Time for flush frequency to rise again to pre-treatment levels after discontinuation (PMP flushing [1]; Patient 1, short-term): ≤ 48 h | Daytime flush duration (PMP flushing [1]; Patient 2, 250 μg once a day): tended to decrease slightly | Daytime flush severity (PMP flushing [1]; Patient 2, 250 μg once a day): did not change significantly | Flush sweating (PMP flushing [1]; Patient 2, 250 μg once a day): did not change significantly | Change in daytime flush frequency (PMP flushing [1]; [8]): −80% | Daytime flush frequency (PMP flushing [1]; [8]): 4 flushes per day | Nighttime flushing (PMP flushing [1]; Patient 2, 250 μg once a day, after the first night): completely disappeared | Change in nighttime flushing (PMP flushing [1]; Patient 2, 250 μg once a day, first night of treatment): −80% | Nighttime flushing (PMP flushing [1]; Patient 2, 250 μg once a day, first night of treatment, from 5): 1 | Change in daytime flush frequency (PMP flushing [1]; Patient 2, 250 μg once a day, within one day): −60% | Daytime flush frequency (PMP flushing [1]; Patient 2, 250 μg once a day, within one day, from 20): 8 | Flush frequency after discontinuation (PMP flushing [1]; Patient 2, within the two days after discontinuation): did not reach pre-treatment levels | Change in daytime flushes (PMP flushing [1]; [9]): −25% | Change in total flushes (PMP flushing [1]; [9]): −25% | Nighttime flushing (PMP flushing [1]; [9]): did not change significantly | Nighttime flushing (PMP flushing [1]; Patient 3, 250 μg twice a day): started to decrease | Decrease in total daily flush frequency (PMP flushing [1]; Patient 3, after 250 μg once then twice a day, one day after discontinuation): 80% | Flush frequency after discontinuation (PMP flushing [1]; Patient 3, six days after discontinuation): still markedly lower than before treatment | Time at which FSH reached its nadir ([2]; Patient 1, 250 μg once a day): 3 days | Serum SHBG level [2, 6]: did not change | Serum albumin level [2, 6]: did not change | Serum estradiol level [2, 6]: did not change | Serum FSH ([2]; Patient 1, 250 μg once a day, in 3 days, from about 90): ~60 U/L | Serum LH level ([2]; Patient 1, 250 μg once a day, within 12 hours, from about 22): ~10 U/L | Time for serum FSH to rise again to pre-treatment levels after discontinuation ([2]; Patient 1, short-term): ≤ 48 h | Time for serum LH to rise again to pre-treatment levels after discontinuation ([2]; Patient 1, short-term): ≤ 48 h | Serum FSH level change ([2]; Patient 2, 250 μg once a day): gradual decrease | Time at which FSH reached its nadir ([2]; Patient 2, 250 μg once a day): 5 days | Serum LH change ([2]; Patient 2, 250 μg once a day, within 12 hours): abrupt decrease | Time for LH to return to pre-treatment levels after discontinuation ([2]; Patient 2, short-term): ≤ 48 h | FSH after discontinuation ([2]; Patient 2, short-term, compared with LH): rose somewhat more slowly | FSH change [2, 10]: more gradually | LH change [2, 10]: decreased abruptly | FSH after discontinuation of treatment ([2]; Patient 3, short-term): rose rapidly | LH after discontinuation of treatment ([2]; Patient 3, short-term): rose rapidly | Time after discontinuation at which flush frequency started to rise (PMP flushing [3]; [11]): 6 weeks | Daytime flush frequency (PMP flushing [3]; [12]): close to zero | Nighttime flush frequency (PMP flushing [3]; [12]): close to zero | Flush severity (scale of 0-10) (PMP flushing [3]; Patient 1, outpatient, 250 μg once a day, from about 8, day as well as night): ~4 | Degree of perspiration (PMP flushing [3]; [13]): unchanged | Flush duration (PMP flushing [3]; [13]): unchanged | Daytime flush duration (PMP flushing [3]; [14]): gradually decreased | Daytime flush perspiration (PMP flushing [3]; [14]): gradually decreased | Daytime flush severity (PMP flushing [3]; [14]): gradually decreased | Daytime flushing, level at which it levelled off (PMP flushing [3]; Patient 2, outpatient, 250 μg once a day, up to third month): 10 flushes/day | Daytime flush frequency (PMP flushing [3]; Patient 2, outpatient, 250 μg once a day, within the first week, from about 18): ~8 flushes/day | Nighttime flushing (PMP flushing [3]; Patient 2, outpatient, 250 μg once a day, within two days): disappeared completely | Flushing (PMP flushing [3]; [15]): further decreased | Total daily flushing (PMP flushing [3]; [16]): 6 flushes/day | Total decrease in total daily flushing (PMP flushing [3]; [16]): about 75% | Decline of flush frequency (PMP flushing [3]; Patient 3, outpatient, 500 μg once a day, P<0.007): 79.3% | Flush frequency (mean±standard error of the mean) (PMP flushing [3]; Patient 3, outpatient, 500 μg once a day, from 9.67±1.12, P<0.007): 2.00±0.44 | Time for FSH levels to rise to pretreatment levels after discontinuation (serum LH and FSH; [11]): ≤ 3 days | Time for LH levels to rise to pretreatment levels after discontinuation (serum LH and FSH; [11]): ≤ 3 days | Serum FSH (serum LH and FSH; [17]): decreased to levels similar to those observed during the in-hospital setting | Serum LH (serum LH and FSH; [17]): decreased to levels similar to those observed during the in-hospital setting | FSH (serum LH and FSH; Patient 2, outpatient, 250 μg once a day, stabilized level): around 15 U/L | Serum LH (serum LH and FSH; Patient 2, outpatient, 250 μg once a day, within a week): decreased to premenopausal levels | Serum FSH level (serum LH and FSH; [15]): further decreased | Serum LH level (serum LH and FSH; [15]): further decreased | Serum FSH nadir (serum LH and FSH; [18]): 25 U/L | Serum LH nadir (serum LH and FSH; [18]): 8 U/L

Clc1cccc(Cl)c1N=C1NCCN1 [Clonidine]
Effect on flushing (PMP flushing [4]; Patient 1, up to 75 μg twice a day): no beneficial effect | Effect on flushing (PMP flushing [4]; Patient 2, 50 μg twice a day): no beneficial effect | Effect on flushing (PMP flushing [4]; Patient 3, 75 μg twice a day): no effect whatsoever | Benefit on flushing (PMP flushing [4]; all three patients, previous use): without experiencing a significant benefit

NCC1(CC(=O)O)CCCCC1 [gabapentin]
Effectiveness against PMP flushing relative to placebo treatment (PMP flushing [5]): about twice as effective as placebo treatment

Fc1ccc([C@@H]2CCNC[C@H]2COc2ccc3c(c2)OCO3)cc1 [paroxetine]
Effectiveness against PMP flushing relative to placebo treatment (PMP flushing [5]): about twice as effective as placebo treatment

COc1ccc(C(CN(C)C)C2(O)CCCCC2)cc1 (stereo not drawn) [venlafaxine]
Effectiveness against PMP flushing relative to placebo treatment (PMP flushing [5]): about twice as effective as placebo treatment

estrogen
Effectiveness against PMP flushing relative to placebo treatment (PMP flushing [5]): four times as effective | Reduction of PMP flush frequency (PMP flushing [5]): 80-90% | Increased risk of a new primary or a breast cancer recurrence (breast cancer): three-fold

Source: patent US20120053122A1, “METHOD FOR THE PROPHYLAXIS OR TREATMENT OF FLUSHING” (priority 2009, published 2012)
